Test results reported in US20240148757A1, “USE OF DIHYDROOROTATE DEHYDROGENASE (DHODH) INHIBITORS TO TARGET FERROPTOSIS IN CANCER THERAPY” (BOARD OF REGENTS, THE UNIVERSITY OF TEXAS SYSTEM, priority 2021, published 2024).

Columns and labels:
DHODH KO HT-1080 cells = assay: Cell viability / cell death (ferroptosis) in DHODH KO HT-1080 cells; format: cell-based, human; details: DHODH KO; pretreatment 10 μM, 24 hours
Description: Knockout of DHODH, ACSL4 and COQ2 in human cell lines was performed using single guide RNAs (sgRNAs) and doxycycline (DOX)-inducible CRISPR-Cas9 expression system as described in our recent publication (Lee, H., et al., Nature cell biology 22, 225-234 (2020)). sgRNAs were cloned into the lentiviral lentiGuide vector. LentiGuide clones were transfected into HEK293T cells with psPAX2 packaging plasmid and pMD2.G expressing plasmid. Cells were infected with lentivirus with 0.8 μg/ml polybrene, selected with puromycin (1 μg/ml, InvivoGen), blasticidin (2 μg/ml, InvivoGen) or hygromycin B (2 μg/ml, InvivoGen) for 3 days and then single cells were sorted into 96-well plates. Single cells were maintained in DMEM with 10% (v/v) FBS and 1% (v/v) penicillin/streptomycin at 37° C. in an incubator with 20% O2 and 5% CO2 for 3-4 weeks and each colony was verified by western blot to confirm the target gene deletion. To generate cell lines with DOX-inducible CRISPR-Cas9-mediated gene deletion, cells were infected with lentivirus, selected with puromycin (1 μg/ml, InvivoGen), blasticidin (2 μg/ml, InvivoGen) or hygromycin B (2 μg/ml, InvivoGen) for 2 days and then single cells were sorted into 96-well plates. Once cell lines were established, 1 μg/ml of DOX (Sigma-Aldrich) was added to the media to induce target gene deletion for 48 hours after selection; then cells were cultured in DOX-free media for subsequent analyses.
Viable cells were measured using Cell Counting Kit-8 (CCK-8, Dojindo) as previously described (Koppula, P., Zhang, Y., Shi, J., Li, W. & Gan, B, J Biol Chem 292, 14240-14249 (2017); Liu, X. & Gan, B, Cell Cycle 15, 3471-3481 (2016)). Briefly, cells were seeded onto 96-well plates at a density of 2×10^4 per well. The next day, cells were treated with GPX4 or DHODH inhibitors for 4 hours. Subsequently, cells exposed to 10 μl CCK-8 reagent (100 μl medium per well) for 1 hour at 37° C., 5% CO2 in an incubator. The absorbance at a wavelength of 450 nm was determined using a FLUOstar Omega microplate reader (BMG Labtech).
Cell death was measured by propidium iodide (Roche) staining using a flow cytometer, as previously described (Dai, F., et al., Proc Natl Acad Sci USA 114, 3192-3197 (2017); Zhang, Y., et al., Cancer Res 80, 2243-2256 (2020)). For propidium iodide-staining, cells were seeded at a density of 50% confluence into 12-well plates. The next day, cells were treated with different reagents. To measure cell death, the cells were collected (including floating dead cells), stained with 5 μg/ml propidium iodide and the percentage of the propidium iodide-positive dead cell population was analyzed using the flow cytometer BD Accuri C6 (BD Biosciences) and an FL2 detector. A minimum of 10,000 single cells were analyzed per well and all experiments were carried out at least in triplicate.

HT-1080 xenograft tumors = assay: HT-1080 cell line-derived xenograft model; format: in vivo, athymic nude mice; details: liproxstatin-1 10 mg/kg intraperitoneally daily
Description: Fresh tumor tissues were fixed in 10% neutral buffered formalin overnight, washed once with PBS, and stored in 70% ethanol at 4° C. The tissues were dehydrated and embedded in paraffin by the Research Histology Core Laboratory (MD Anderson Cancer Center) according to standard protocols. Embedded tissues were sectioned at a thickness of 5 μm for H&E or immunohistochemistry (IHC) analysis. IHC analysis was performed as previously described (Gan, B., et al., Cancer Cell 18, 472-484 (2010); Gan, B., et al., J Cell Biol 175, 121-133 (2006)). Briefly, the primary antibodies, including ki-67 (1:500, 9027s, Cell Signaling Technology), cleaved-caspase 3 (1:500, 9661s, Cell Signaling Technology), or 4-HNE (1:400, ab46545, Abcam) were incubated overnight at 4° C. Staining was performed using the Vectastain elite ABC kit and DAB peroxidase substrate kit (Vector laboratories). Images were randomly taken from the […] (five images per tumor) at ×200 magnification using an Olympus BX43 microscope. All the xenograft experiments were performed in accordance with a protocol approved by the Institutional Animal Care and Use Committee and Institutional Review Board at The University of Texas MD Anderson Cancer Center. The study is compliant with all relevant ethical regulations regarding animal research. Female 4- to 6-week-old athymic nude mice (Foxn1^nu/Foxn1^nu) were purchased from the Experimental Radiation Oncology Breeding Core Facility at MD Anderson Cancer Center and housed in the Animal Care Facility at the Department of Veterinary Medicine and Surgery at MD Anderson. Cancer cell lines were suspended and counted in cold phosphate-buffered saline (PBS), and 5×10^6 HT-1080 or 1×10^7 NCI-H226 cells were injected into mice subcutaneously. When the tumor reached 50-100 mm^3, the mice were assigned randomly into different treatment groups. Brequinar or sulfasalazine was dissolved in dimethyl sulfoxide (DMSO) and diluted in PBS. Brequinar was intraperitoneally injected into mice at a dose of 30 mg/kg every three days. Sulfasalazine was intraperitoneally injected daily at a dose of 100 mg/kg. Liproxstatin-1 diluted in PBS was intraperitoneally injected daily at a dose of 10 mg/kg. The daily injection of brequinar, sulfasalazine, or liproxstatin-1 was continued until the endpoint as indicated in the corresponding figures. The tumor volume was measured every 3 days until the endpoint and calculated according to the equation volume=length×width^2×½.

[1] = system: GPX4^low patient-derived xenografts (PDXs); assay: GPX4^low patient-derived xenograft model; format: in vivo, NSG mice; details: liproxstatin-1 10 mg/kg intraperitoneally daily
Source text: PDXs were generated in accordance with protocols approved by the Institutional Review Board at The University of Texas MD Anderson Cancer Center. Informed consent was obtained from the patients and the study is compliant with all relevant ethical regulations regarding research involving human participants. All the NOD scid gamma (NSG) mice were purchased from the Experimental Radiation Oncology Breeding Core Facility at MD Anderson Cancer Center and housed in the Animal Care Facility at the Department of Veterinary Medicine and Surgery at MD Anderson Cancer Center. PDX model used in this study was originally obtained from lung cancer PDX platform at MD Anderson Cancer Center. PDX experiments were performed as previously described (Liu, X., et al., Nat Cell Biol 22, 476-486 (2020)). Briefly, PDX tumors in cold DMEM media were minced into fragments 1-2 mm^3 in volume. Then each PDX tumor fragment was subcutaneously inoculated into the dorsal flank of NSG mice. When the tumors reached 50-100 mm 3 in volume, the mice were assigned randomly into different treatment groups for the treatment of brequinar, sulfasalazine, and/or liproxstatin-1 as described under cell line-derived xenograft model. The tumor volume was measured every 3 days until the endpoint and calculated according to the equation volume=length×width^2×½.

SMILES: Clc1cccc(CN=C2Nc3ccccc3NC23CCNCC3)c1 [liproxstatin-1]
- protection against GPX4 inhibition (RSL3 or ML162)-induced ferroptosis (DHODH KO HT-1080 cells): rescued
- restoration of tumor growth suppressed by brequinar and sulfasalazine (HT-1080 xenograft tumors): largely restored
- restoration of brequinar-suppressed tumor growth [1]: could be restored
